Results as given in patent US12410160B2 (Gilead Sciences, Inc., priority 2021, dated 2025).

Experiments:
human KHK-C = human KHK-C (Homo sapiens (Human), UniProt P50053); experiment: KHK Biochemical Assay (IC50), ADP-Glo, KHK-C; conditions: average of at least two separate assays
In short: (§1)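 Luminescent ADP-Glo read-out of ADP made by His-tagged KHK (BL21 (DE3) expression, Ni-NTA). Enzyme and compound sat together 30 min before ATP/fructose addition, then reacted 4 h at RT in Hepes pH 7.4 buffer with KCl, MgCl2, Triton-X. Quench 1 h, detection 1 h.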

human KHK-A = human KHK-A (Homo sapiens (Human), UniProt P50053); experiment: KHK Biochemical Assay (IC50), ADP-Glo, KHK-A; conditions: average of at least two separate assays
human KHK-A, sequence (P50053 other isoform, or with tags, fused parts or gaps): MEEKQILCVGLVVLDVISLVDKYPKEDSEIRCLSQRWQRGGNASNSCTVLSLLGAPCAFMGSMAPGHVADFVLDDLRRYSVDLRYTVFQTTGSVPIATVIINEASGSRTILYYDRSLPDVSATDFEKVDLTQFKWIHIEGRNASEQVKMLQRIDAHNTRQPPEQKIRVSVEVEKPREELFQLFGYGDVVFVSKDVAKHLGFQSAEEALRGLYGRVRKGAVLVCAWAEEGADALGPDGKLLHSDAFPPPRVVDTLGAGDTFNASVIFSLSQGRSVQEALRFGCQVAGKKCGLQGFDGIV
In short: as §1

human KHK-C, sequence (P50053 whole entry): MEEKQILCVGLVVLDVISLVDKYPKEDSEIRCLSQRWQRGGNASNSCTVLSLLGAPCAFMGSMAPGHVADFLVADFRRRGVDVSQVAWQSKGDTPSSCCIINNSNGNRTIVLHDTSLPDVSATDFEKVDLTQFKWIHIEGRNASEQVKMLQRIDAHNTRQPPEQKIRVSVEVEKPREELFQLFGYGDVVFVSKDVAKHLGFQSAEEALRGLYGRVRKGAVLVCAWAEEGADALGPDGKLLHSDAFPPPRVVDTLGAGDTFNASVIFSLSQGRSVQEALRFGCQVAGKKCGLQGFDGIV

Compound	IC50 (human KHK-C; ADP-Glo)	IC50 (human KHK-A; ADP-Glo)	IC50 (human KHK-C)	IC50 (human KHK-A)
C[C@H]1CCN1c1nc2c(c(-c3cc(C(N)=O)ns3)n1)CCC2 [Example 85, (S)-5-(2-(2-methylazetidin-1-yl)-6,7-dihydro-5H-cyclopenta[d]pyrimidin-4-yl)isothiazole-3-carboxamide]	1370 nM	1120 nM		
C[C@@H]1N(c2nc(-c3ccc4c(c3)COC[C@@H]4NS(C)(=O)=O)c3c(n2)C(F)(F)CC3)CC1(F)F [Example 584, N—((R)-7-(2-((S)-3,3-difluoro-2-methylazetidin-1-yl)-7,7-difluoro-6,7-dihydro-5H-cyclopenta[d]pyrimidin-4-yl)isochroman-4-yl)methanesulfonamide]			2.6 nM	19.8 nM
C[C@@H]1N(c2nc(-c3ccc4c(c3)CCC43COC(=O)N3)c3c(n2)C(F)(F)CC3)C[C@@]1(C)O (stereo partly drawn) [Example 576, 5-(7,7-difluoro-2-((2S,3R)-3-hydroxy-2,3-dimethylazetidin-1-yl)-6,7-dihydro-5H-cyclopenta[d]pyrimidin-4-yl)-2,3-dihydrospiro[indene-1,4′-oxazolidin]-2′-one]			6.8 nM	> 100 nM
C[C@H]1[C@H](O)CN1c1nc(-c2ccc(OC3CC3)c(S(C)(=N)=O)c2)c2c(n1)C(F)(F)CC2 (stereo partly drawn) [Example 541, (2-cyclopropoxy-5-(7,7-difluoro-2-((2S,3R)-3-hydroxy-2-methylazetidin-1-yl)-6,7-dihydro-5H-cyclopenta[d]pyrimidin-4-yl)phenyl)(imino)(methyl)-λ^6-sulfanone]			1.3 nM	0.9 nM
c1ccc(-c2nc(C3CC3)nc3c2CCC3)cc1 [Example 96, 2-cyclopropyl-4-phenyl-6,7-dihydro-5H-cyclopenta[d]pyrimidine]	> 5000 nM	4660 nM		
2-(3-(7,7-difluoro-2-((2S,3R)-3-hydroxy-2-methylazetidin-1-yl)-6,7-dihydro-5H-cyclopenta[d]pyrimidin-4-yl)phenylsulfonimidoyl)acetonitrile [Example 628]			8.8 nM	10.3 nM
NC1(c2ccc(-c3nc(N4CCC4C4CCC4)nc4c3CCC4(F)F)cc2)COC1 (centres unmarked) [Example 572, 3-(4-(2-(2-cyclobutylazetidin-1-yl)-7,7-difluoro-6,7-dihydro-5H-cyclopenta[d]pyrimidin-4-yl)phenyl)oxetan-3-amine]			56.3 nM	> 100 nM
CS(=O)(=O)N[C@H]1COCc2cc(-c3nc(N4CC[C@@H]4C(F)(F)F)nc4c3CCC4(F)F)ccc21 [Example 581, N—((R)-7-(7,7-difluoro-2-((R)-2-(trifluoromethyl)azetidin-1-yl)-6,7-dihydro-5H-cyclopenta[d]pyrimidin-4-yl)isochroman-4-yl)methanesulfonamide]			0.8 nM	3.1 nM
C[C@H]1CCN1c1nc2c(c(-c3cnn(C(F)F)c3)n1)CCC2 [Example 259, 4-[1-(difluoromethyl)pyrazol-4-yl]-2-[(2S)-2-methylazetidin-1-yl]-6,7-dihydro-5H-cyclopenta[d]pyrimidine]	312 nM	380 nM		
C[C@H]1CCN1c1nc2c(c(-c3ccc(O)cc3)n1)CCC2 [Example 262, 4-[2-[(2S)-2-methylazetidin-1-yl]-6,7-dihydro-5H-cyclopenta[d]pyrimidin-4-yl]phenol]	141 nM	180 nM		
Cc1cnc(-c2nc(N3CC[C@@H]3C)nc3c2CCC3)s1 [Example 342, 5-methyl-2-[2-[(2S)-2-methylazetidin-1-yl]-6,7-dihydro-5H-cyclopenta[d]pyrimidin-4-yl]thiazole]	107 nM	107 nM		
C[C@H]1CCN1c1nc2c(c(-c3cccc(O)c3)n1)CCC2 [Example 261, 3-[2-[(2S)-2-methylazetidin-1-yl]-6,7-dihydro-5H-cyclopenta[d]pyrimidin-4-yl]phenol]	153 nM	133 nM		
C[C@H]1[C@H](O)CN1c1nc(-c2ccc3c(c2)OCC32COCC(=O)N2)c2c(n1)C(F)(F)CC2 (stereo partly drawn) [Example 497, 6-(7,7-difluoro-2-((2S,3R)-3-hydroxy-2-methylazetidin-1-yl)-6,7-dihydro-5H-cyclopenta[d]pyrimidin-4-yl)-2H-spiro[benzofuran-3,3′-morpholin]-5′-one]			0.1 nM	2.2 nM
COc1ccc(-c2nc(N3CC[C@@H]3C)nc3c2CCC3)cc1S(=N)(=O)c1ccc(C#N)c(Cl)c1 (stereo partly drawn) [Example 845, 2-chloro-4-(2-methoxy-5-(2-((S)-2-methylazetidin-1-yl)-6,7-dihydro-5H-cyclopenta[d]pyrimidin-4-yl)phenylsulfonimidoyl)benzonitrile]	182 nM	47 nM		
C[C@H]1[C@H](O)CN1c1nc(-c2cc3c(s2)CCC3NS(C)(=O)=O)c2c(n1)C(F)(F)CC2 (some centres unmarked) [Example 574]			9.4 nM	11.1 nM
CC1CC(NS(C)(=O)=O)c2ccc(-c3nc(N4CC[C@@H]4C)nc4c3CCC4)cc21 (stereo partly drawn) [Example 894, N-(3-methyl-5-(2-((S)-2-methylazetidin-1-yl)-6,7-dihydro-5H-cyclopenta[d]pyrimidin-4-yl)-2,3-dihydro-1H-inden-1-yl)methanesulfonamide]	20.5 nM	106 nM		

Compound	IC50 (human KHK-C; ADP-Glo)	IC50 (human KHK-A; ADP-Glo)	IC50 (human KHK-C)	IC50 (human KHK-A)
C[C@H]1[C@H](O)CN1c1nc2c(c(-c3cccc([C@H]4C[C@@H]4C(=O)O)c3)n1)CCC2 (single isomer, unassigned) [Example 113]	13.2 nM	18.2 nM		
C[C@H]1CCN1c1nc2c(c(-c3ccc(C4(N5CCOCC5)CC4)cc3)n1)CCC2 [Example 304, (S)-4-(1-(4-(2-(2-methylazetidin-1-yl)-6,7-dihydro-5H-cyclopenta[d]pyrimidin-4-yl)phenyl)cyclopropyl)morpholine]	786 nM	983 nM		
CS(=O)(=O)N[C@H]1COc2cc(-c3nc(N4CC[C@@H]4C(F)(F)F)nc4c3CCC4(F)F)ccc21 [Example 577, N—((R)-6-(7,7-difluoro-2-((R)-2-(trifluoromethyl)azetidin-1-yl)-6,7-dihydro-5H-cyclopenta[d]pyrimidin-4-yl)-2,3-dihydrobenzofuran-3-yl)methanesulfonamide]			0.6 nM	2.1 nM
C[C@H]1CCN1c1nc2c(c(-c3ccc(CS(N)(=O)=O)cc3)n1)CCC2 [Example 242, [4-[2-[(2S)-2-methylazetidin-1-yl]-6,7-dihydro-5H-cyclopenta[d]pyrimidin-4-yl]phenyl]methanesulfonamide]	135 nM	98.6 nM		
C[C@H]1CCN1c1nc2c(c(-c3ccc4c(c3)NC(=O)C4(C)C)n1)CCC2 [Example 264, 3,3-dimethyl-6-[2-[(2S)-2-methylazetidin-1-yl]-6,7-dihydro-5H-cyclopenta[d]pyrimidin-4-yl]indolin-2-one]	646 nM	758 nM		
C[C@H]1CCN1c1nc2c(c(-c3cccc(C(=O)NCCO)c3)n1)CCC2 [Example 61, (S)—N-(2-hydroxyethyl)-3-(2-(2-methylazetidin-1-yl)-6,7-dihydro-5H-cyclopenta[d]pyrimidin-4-yl)benzamide]	90.3 nM	56.8 nM		
C[C@H]1CCN1c1nc2c(c(-c3cccc(CNC(=O)C(C)(C)O)c3)n1)CCC2 [Example 228, 2-hydroxy-2-methyl-N-[[3-[2-[(2S)-2-methylazetidin-1-yl]-6,7-dihydro-5H-cyclopenta[d]pyrimidin-4-yl]phenyl]methyl]propanamide]	143 nM	159 nM		
C[C@H]1CCN1c1nc2c(c(-c3cccc(C(=O)NCc4ccccc4)c3)n1)CCC2 [Example 218, N-benzyl-3-[2-[(2S)-2-methylazetidin-1-yl]-6,7-dihydro-5H-cyclopenta[d]pyrimidin-4-yl]benzamide]	485 nM	418 nM		
C[C@H]1CCN1c1nc2c(c(-c3cccc(C(=O)Nc4cc[nH]n4)c3)n1)CCC2 [Example 65, (S)-3-(2-(2-methylazetidin-1-yl)-6,7-dihydro-5H-cyclopenta[d]pyrimidin-4-yl)-N-(1H-pyrazol-3-yl)benzamide]	245 nM	150 nM		
C[C@H]1CCN1c1nc2c(c(-c3cccc(S(=N)(=O)c4ccc(C#N)cc4C4CC4)c3)n1)CCC2 (some centres unmarked) [Example 847]	118 nM	200 nM		
C[C@H]1CCN1c1nc2c(c(-c3cccc(C(=O)Nc4ccccc4)c3)n1)CCC2 [Example 297, (S)-3-(2-(2-methylazetidin-1-yl)-6,7-dihydro-5H-cyclopenta[d]pyrimidin-4-yl)-N-phenylbenzamide]	2840 nM	847 nM		
C[C@H]1[C@H](O)CN1c1nc2c(c(-c3ccc(S(N)(=O)=O)cc3)n1)CCC2 [Example 199, 4-[2-[(2S,3R)-3-hydroxy-2-methyl-azetidin-1-yl]-6,7-dihydro-5H-cyclopenta[d]pyrimidin-4-yl]benzenesulfonamide]	149 nM	282 nM		
C[C@@H]1CN(c2nc3c(c(-c4ccc(C(N)=O)cc4)n2)CCC3)[C@@H]1C [Example 109, 4-(2-((2R,3R)-2,3-dimethylazetidin-1-yl)-6,7-dihydro-5H-cyclopenta[d]pyrimidin-4-yl)benzamide]	2540 nM	3200 nM		
C[C@H]1CCN1c1nc2c(c(-c3ccc4c(c3)C3(CC3)C(=O)NC4=O)n1)CCC2 [Example 870, (S)-6′-(2-(2-methylazetidin-1-yl)-6,7-dihydro-5H-cyclopenta[d]pyrimidin-4-yl)-1′H-spiro[cyclopropane-1,4′-isoquinoline]-1′,3′(2′H)-dione]	69.5 nM	10.9 nM		
COC(=O)CCc1cccc(-c2nc(N3CC[C@@H]3C)nc3c2CCC3)c1 [Example 1, methyl (S)-3-(3-(2-(2-methylazetidin-1-yl)-6,7-dihydro-5H cyclopenta[d]pyrimidin-4-yl)phenyl)propanoate]	689 nM	952 nM		
